Source: patent US11053204B2, “Pyrimidinyloxy benzene derivatives as herbicides” (FMC Corporation, priority 2015, dated 2021)

Experiments:
Type in all cases: in vivo
[1] = system: galium (catchweed bedstraw, Galium aparine); test: Test C preemergence, plant response rating
[2] = system: pigweed (Amaranthus retroflexus); test: Test C preemergence, plant response rating; settings: Preemergence
[3] = system: waterhemp (common waterhemp, Amaranthus rudis); test: Test C postemergence, plant response rating; settings: for Plant response rating, Waterhemp: scale 0 to 100; for Waterhemp plant response rating: scale 0 to 100 (0 no effect, 100 complete control)
Summary of the method: (§1)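 After sowing in loam–sand blend or silt loam, pots were sprayed preemergence; separately grown 1- to 4-leaf plants were sprayed postemergence. Following 13 to 15 d under greenhouse conditions, injury was rated visually on a 0 to 100 scale.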

[4] = system: lambsquarters (Chenopodium album); test: Test C postemergence, plant response rating; settings: Chenopodium album, post-emergence
Summary of the method: as §1

[5] = system: crabgrass, large (large crabgrass, Digitaria sanguinalis); test: Test C postemergence, plant response rating; settings: Digitaria sanguinalis, post-emergence
Summary of the method: as §1

[6] = system: blackgrass (Alopecurus myosuroides); test: Test C postemergence, plant response rating; settings: Alopecurus myosuroides, post-emergence
Summary of the method: as §1

[7] = system: oat, wild (wild oat Avena fatua); test: Test C postemergence, plant response rating; settings: Avena fatua, post-emergence
Summary of the method: as §1

[8] = system: wheat (winter wheat, Triticum aestivum); test: Test C postemergence, plant response rating; settings: Triticum aestivum, post-emergence
Summary of the method: as §1

[9] = system: ragweed (common ragweed, Ambrosia elatior); test: Test C postemergence, plant response rating; settings: Ambrosia artemisiifolia, post-emergence
Summary of the method: as §1

[10] = system: galium (catchweed bedstraw, Galium aparine); test: Test C postemergence, plant response rating; settings: Galium, post-emergence
Summary of the method: as §1

soybean (Glycine max) = test: Test C postemergence, plant response rating; settings: Glycine max, post-emergence
Summary of the method: as §1

[11] = system: barnyardgrass (Echinochloa crus-galli); test: Test C postemergence, plant response rating; settings: Echinochloa crus-galli, post-emergence
Summary of the method: as §1

[12] = system: velvetleaf (Abutilon theophrasti); test: Test C postemergence, plant response rating; settings: Abutilon theophrasti, post-emergence
Summary of the method: as §1

corn (Zea mays) = test: Test C postemergence, plant response rating; settings: Zea mays, post-emergence
Summary of the method: as §1

[13] = system: oilseed rape (Brassica napus); test: Test C postemergence, plant response rating; settings: Brassica napus, post-emergence
Summary of the method: as §1

[14] = system: nutsedge, yellow (yellow nutsedge, Cyperus esculentus); test: Test C postemergence, plant response rating; settings: Cyperus, post-emergence
Summary of the method: as §1

[15] = system: foxtail, giant (giant foxtail, Setaria faberii); test: Test C postemergence, plant response rating; settings: Setaria faberi, post-emergence
Summary of the method: as §1

[16] = system: ryegrass, Italian (Italian ryegrass, Lolium multiflorum); test: Test C postemergence, plant response rating; settings: Lolium multiflorum, post-emergence
Summary of the method: as §1

[17] = 62 g ai/ha, scale 0 to 100 (0 no effect, 100 complete control)
[18] = 125 g ai/ha, scale 0 to 100 (0 no effect, 100 complete control)

SMILES: O=C(OCCCC(F)(F)F)c1c(Br)cccc1Oc1ncc(Cl)cn1 [Compound 20, 4,4,4-trifluorobutyl 2-bromo-6-[(5-chloro-2-pyrimidinyl)oxy]benzoate]
- Plant response rating, Galium ([1]; 16 g ai/ha, scale 0 to 100): 10
- Plant response rating, Galium ([1]; 31 g ai/ha, scale 0 to 100): 0
- Plant response rating, Galium ([1]; 62 g ai/ha, scale of 0 to 100): 80
- Plant response rating, Galium ([1]; 125 g ai/ha, scale of 0 to 100): 95
- Plant response rating, Pigweed ([2]; 125 g ai/ha, scale of 0 to 100): 100
- Plant response rating, Pigweed ([2]; 16 g ai/ha, scale 0 to 100): 55
- Plant response rating, Pigweed ([2]; 31 g ai/ha, scale 0 to 100): 55
- Plant response rating, Pigweed ([2]; 62 g ai/ha, scale 0 to 100): 100
- Plant response rating, Waterhemp ([3]; 16 g ai/ha): 75
- Plant response rating, Waterhemp ([3]; 31 g ai/ha): 95
- Waterhemp plant response rating ([3]; 62 g ai/ha): 90
- Waterhemp plant response rating ([3]; 125 g ai/ha): 98
- pest or weed control at 16 g/ha ([4]; 16 g ai/ha, scale 0 to 100): 65%
- pest or weed control at 31 g/ha ([4]; 31 g ai/ha, scale 0 to 100): 80%
- pest or weed control at 62 g/ha [4, 17]: 70%
- pest or weed control at 125 g/ha [4, 18]: 85%
- pest or weed control at 16 g/ha ([5]; 16 g ai/ha, scale 0 to 100): 10%
- pest or weed control at 31 g/ha ([5]; 31 g ai/ha, scale 0 to 100): 10%
- pest or weed control at 62 g/ha [5, 17]: 15%
- pest or weed control at 125 g/ha [5, 18]: 15%
- pest or weed control at 16 g/ha ([6]; 16 g ai/ha, scale 0 to 100): 5%
- pest or weed control at 31 g/ha ([6]; 31 g ai/ha, scale 0 to 100): 5%
- pest or weed control at 62 g/ha [6, 17]: 5%
- pest or weed control at 125 g/ha [6, 18]: 10%
- pest or weed control at 16 g/ha ([7]; 16 g ai/ha, scale 0 to 100): 0%
- pest or weed control at 31 g/ha ([7]; 31 g ai/ha, scale 0 to 100): 0%
- pest or weed control at 62 g/ha [7, 17]: 5%
- pest or weed control at 125 g/ha [7, 18]: 5%
- plant injury at 16 g/ha ([8]; 16 g ai/ha, scale 0 to 100): 0%
- plant injury at 31 g/ha ([8]; 31 g ai/ha, scale 0 to 100): 0%
- plant injury at 62 g/ha ([8]; 62 g ai/ha, scale 0 to 100 (0 no effect, 100 complete control), read-out: Wheat plant response rating): 5%
- plant injury at 125 g/ha [8, 18]: 5%
- pest or weed control at 16 g/ha ([9]; 16 g ai/ha, scale 0 to 100): 30%
- pest or weed control at 31 g/ha ([9]; 31 g ai/ha, scale 0 to 100): 50%
- pest or weed control at 62 g/ha [9, 17]: 55%
- pest or weed control at 125 g/ha [9, 18]: 60%
- pest or weed control at 16 g/ha ([10]; 16 g ai/ha, scale 0 to 100): 70%
- pest or weed control at 31 g/ha ([10]; 31 g ai/ha, scale 0 to 100): 60%
- pest or weed control at 62 g/ha [10, 17]: 80%
- pest or weed control at 125 g/ha [10, 18]: 98%
- plant injury at 16 g/ha (soybean (Glycine max); 16 g ai/ha, scale 0 to 100): 25%
- plant injury at 31 g/ha (soybean (Glycine max); 31 g ai/ha, scale 0 to 100): 65%
- plant injury at 62 g/ha (soybean (Glycine max); [17]): 55%
- plant injury at 125 g/ha (soybean (Glycine max); [18]): 60%
- pest or weed control at 16 g/ha ([11]; 16 g ai/ha, scale 0 to 100): 10%
- pest or weed control at 31 g/ha ([11]; 31 g ai/ha, scale 0 to 100): 10%
- pest or weed control at 62 g/ha [11, 17]: 10%
- pest or weed control at 125 g/ha [11, 18]: 20%
- pest or weed control at 16 g/ha ([12]; 16 g ai/ha, scale 0 to 100): 20%
- pest or weed control at 31 g/ha ([12]; 31 g ai/ha, scale 0 to 100): 50%
- pest or weed control at 62 g/ha ([12]; 62 g ai/ha, scale 0 to 100 (0 no effect, 100 complete control), read-out: Velvetleaf plant response rating): 40%
- pest or weed control at 125 g/ha [12, 18]: 70%
- Corn plant response rating (crop injury, 0 = no effect, 100 = complete kill) at 16 g/ha (corn (Zea mays); 16 g ai/ha, scale 0 to 100): 5%
- Corn plant response rating (crop injury, 0 = no effect, 100 = complete kill) at 31 g/ha (corn (Zea mays); 31 g ai/ha, scale 0 to 100): 10%
- plant injury at 62 g/ha (corn (Zea mays); [17]): 10%
- plant injury at 125 g/ha (corn (Zea mays); [18]): 20%
- plant injury at 16 g/ha ([13]; 16 g ai/ha, scale 0 to 100): 50%
- plant injury at 31 g/ha ([13]; 31 g ai/ha, scale 0 to 100): 50%
- plant injury at 62 g/ha [13, 17]: 50%
- plant injury at 125 g/ha [13, 18]: 60%
- pest or weed control at 16 g/ha ([14]; 16 g ai/ha, scale 0 to 100): 0%
- pest or weed control at 31 g/ha ([14]; 31 g ai/ha, scale 0 to 100): 5%
- pest or weed control at 62 g/ha [14, 17]: 5%
- pest or weed control at 125 g/ha [14, 18]: 10%
- pest or weed control at 16 g/ha ([15]; 16 g ai/ha, scale 0 to 100): 10%
- pest or weed control at 31 g/ha ([15]; 31 g ai/ha, scale 0 to 100): 10%
- pest or weed control at 62 g/ha [15, 17]: 10%
- pest or weed control at 125 g/ha [15, 18]: 25%
- pest or weed control at 16 g/ha ([16]; 16 g ai/ha, scale 0 to 100): 0%
- pest or weed control at 31 g/ha ([16]; 31 g ai/ha, scale 0 to 100): 5%
- pest or weed control at 62 g/ha [16, 17]: 10%
- pest or weed control at 125 g/ha [16, 18]: 5%
